{"source": "patent US20240299269A1", "about": "“HYDROXY ACIDS FOR SCALP AND HAIR IN PERSONAL CARE COMPOSITIONS” (The Procter & Gamble Company, priority 2023, published 2024)", "key": {"[1]": {"settings": "calcium binding constant; cited from earlier work"}, "[2]": {"settings": "octanol/water; cited from earlier work"}, "[3]": {"assay": "In vitro calcium chelation screening of weak acids (octanol/water, ICP-OES)", "assay_type": "physicochemical", "settings": "for % Calcium in Water Phase: 3% hydroxy acid in water, pH approximately 3, 1000 ppm CaCO3 in octanol, vortexed 2 minutes, 2 hours", "procedure": "A high throughput in-vitro screening method is developed to help identify lead acids that could function as calcium chelators. The intent of the method is to mimic the lipid matrix of the scalp and to quantify the amount of calcium that could be extracted from that matrix. […] Equal parts of the lipid and water phases are added to a conical vial and vortexed for 2 minutes. The vials are left to sit for 2 hours and then the lower water phase is extracted from the concial vial and submitted for Calcium analysis via ICP-OES. […] [formula]"}}, "data": [{"smiles": "O=C(O)[C@H](O)[C@@H](O)[C@H](O)[C@H](O)CO", "note": "[Gluconic Acid]", "values": [{"measurement": "logK_1", "setting": "[1]", "value": 1.880}, {"measurement": "LogP", "setting": "[2]", "value": "−1.870"}]}, {"smiles": "O=C(O)CO", "note": "[Glycolic Acid]", "values": [{"measurement": "logK_1", "setting": "[1]", "value": 1.590}, {"measurement": "LogP", "setting": "[2]", "value": "−1.050"}]}, {"smiles": "CC(O)C(=O)O", "note": "(stereo not drawn) [Lactic Acid]", "values": [{"measurement": "logK_1", "setting": "[1]", "value": 1.450}, {"measurement": "% Calcium in Water Phase", "setting": "[3]", "value": 78, "unit": "%"}]}, {"smiles": "O=C(O)C(O)C(O)C(=O)O", "note": "(stereo not drawn) [Tartaric Acid]", "values": [{"measurement": "LogP", "setting": "[2]", "value": "−0.760"}]}, {"smiles": "O=C(O)CC(O)(CC(=O)O)C(=O)O", "note": "[Citric Acid]", "values": [{"measurement": "logK_1", "setting": "[1]", "value": 1.100}, {"measurement": "logK_3", "setting": "[1]", "value": 4.680}]}, {"smiles": "O=C(O)c1ccccc1O", "note": "[Salicylic Acid]", "values": [{"measurement": "logK_1", "setting": "[1]", "value": 1.100}, {"measurement": "% Calcium in Water Phase", "setting": "[3]", "value": 29, "unit": "%"}, {"measurement": "calcium chelation ability", "setting": "[3]; among hydroxy acids screened", "value": "lower calcium chelation ability"}]}]}
